The values below come from US10221185B2, “Crystal form of substituted aminopyran derivativek” (Sichuan Haisco Pharmaceutical Co., Ltd., priority 2015, dated 2019).

Holding throughout (format): physicochemical
The nature of data set [1]: Stability of crystal forms of Compound A kept dry at room temperature. The following applies: Kept dry at room temperature for 14 d.
Data set [2] is described as follows: Slurry competition experiments of crystal forms of Compound A at room temperature. The source says: 2. Room temperature competition experiment between Crystal form I and Crystal forms II, III, IV of Compound A, examining the stability of the crystal forms in solvents such as water, ethanol, and water:ethanol (1:1) at room temperature, see Table 2 for details.

Data set [3] in a line: Chemical stability of Crystal form IV of Compound A (influencing factors: high temperature, light exposure, high humidity). The source says:
A sample was investigated under the conditions and sampling time points shown in Table 4 below for influencing factors, and the results are shown in Table 5 below.

Where [4] appears, read: High humidity (92.5% RH), unsealed, 10 d.
Where [5] appears, read: High humidity (92.5% RH), unsealed, 60 d.
The mark [6] stands for this setting: High temperature, unsealed, 40° C., 10 d.
[7] abbreviates: High temperature, unsealed, 40° C., 60 d.
The mark [8] stands for this setting: High temperature, unsealed, 60° C., 10 d.
Where [9] appears, read: High temperature, unsealed, 60° C., 60 d.

Structures are written as SMILES.

For the compound `CS(=O)(=O)n1cc2c(n1)CN([C@@H]1C[C@H](N)[C@@H](c3cc(F)ccc3F)O[C@@H]1C(F)(F)F)C2` [Crystal form II, (2R,3S,5R,6S)-2-(2,5-difluorophenyl)-5-(2-(methylsulfonyl)pyrrolo[3,4-c]pyrazol-5(2H,4H,6H)-yl)-6-(trifluoromethyl)tetrahydro-2H-pyran-3-amine], in data set [1], the “Crystal form after transformation” value is given as “Crystal form II” and the “Stability of crystal form (conclusion in words)” value was “good stability”.

For `CS(=O)(=O)n1cc2c(n1)CN([C@@H]1C[C@H](N)[C@@H](c3cc(F)ccc3F)O[C@@H]1C(F)(F)F)C2` [Crystal form III, (2R,3S,5R,6S)-2-(2,5-difluorophenyl)-5-(2-(methylsulfonyl)pyrrolo[3,4-c]pyrazol-5(2H,4H,6H)-yl)-6-(trifluoromethyl)tetrahydro-2H-pyran-3-amine], in data set [1], the “Crystal form after transformation” value is given as “Crystal form III” and the “Stability of crystal form (conclusion in words)” value was “good stability”.

On to `CS(=O)(=O)n1cc2c(n1)CN([C@@H]1C[C@H](N)[C@@H](c3cc(F)ccc3F)O[C@@H]1C(F)(F)F)C2` [Crystal form IV of Compound A, (2R,3S,5R,6S)-2-(2,5-difluorophenyl)-5-(2-(methylsulfonyl)-pyrrolo[3,4]pyrazol-5(2H,4H,6H)-yl)-6-(trifluoromethyl)tetrahydro-2H-pyran-3-amine], for which the “Relative stability of crystal forms (conclusion in words)” value in data set [2] is recorded as “the most stable crystal form at room temperature”. In data set [1], the “Crystal form after transformation” value is recorded as “Crystal form IV”. Also, the “Stability of crystal form (conclusion in words)” value in data set [1] is recorded as “good stability”. The Appearance result in data set [3] (0 d) is “Off-white”; in data set [3] (setting [4]), “Light yellow”; in data set [3] (setting [5]), “Light yellow”; in data set [3] (setting [6]), “Light yellow”; in data set [3] (setting [7]), “Light yellow”; in data set [3] (setting [8]), “Light yellow”. In addition, the Appearance entry in data set [3] (setting [9]) was “Light yellow”; in data set [3] (Light exposure, unsealed, 10 d) it was “Off-white”; in data set [3] (Light exposure, unsealed, 60 d), “Off-white”. Also, the Moisture in data set [3] (0 d) was 0.19%; in data set [3] (setting [4]), 0.27%; in data set [3] (setting [5]), 0.20%; in data set [3] (setting [6]), 0.25%; in data set [3] (setting [7]) it was 0.18%; in data set [3] (setting [8]) it was 0.36%. Besides, the Moisture in data set [3] (setting [9]) was 0.15%; in data set [3] (Light exposure, unsealed, 10 d), 0.32%; in data set [3] (Light exposure, unsealed, 60 d) it was 0.16%. Moreover, the “Purity of Compound A” value in data set [3] (0 d) is on record as 99.67%; in data set [3] (setting [4]) it was 99.57%; in data set [3] (setting [5]), 99.28%; in data set [3] (setting [6]), 99.54%; in data set [3] (setting [7]), 99.43%; in data set [3] (setting [8]), 99.48%. Further, the “Purity of Compound A” value was 99.15% in data set [3] (setting [9]); 99.51% in data set [3] (Light exposure, unsealed, 10 d); 99.43% in data set [3] (Light exposure, unsealed, 60 d).
